The values below come from patent US7572436B1, “Thionin as an antineoplastic and immunostimulant” (priority 2000, dated 2009).

Data set [1] has as its system Balb C splenocytes. The data set can be described thus: Mitogen assay (^3H-thymidine uptake), murine splenocytes. The format is cell-based.
Data set [2] concerns the target high affinity binding site on murine Balb/C splenocytes (mouse). Briefly: binding of 125I-labelled PT to isolated murine spleen cells; non-specific binding (100-fold excess of unlabelled iodinated PT) subtracted.
Data set [3] relates to Balb C splenocytes. The data set can be described thus: Mitogen assay (^3H-thymidine uptake), murine splenocytes. The format is cell-based. The following applies: for CPM of tritiated thymidine incorporated: Balb C splenocytes. The source says:
(§1) Murine spleen cells or human peripheral blood lymphocytes (PBLS) were obtained aseptically as described herein for use in the mitogen assay. When murine splenocytes were used, they were first treated with red cell lysing buffer (0.17 M Tris, 0.144 NH4C1, pH 7.2), washed in RPMI-10 (standard RPMI growth medium, Sigma Chemical Co., St. Louis, Mo., supplemented with 10% fetal bovine serum) and viable cells counted using Trypan Blue exclusion. Human PBLs were isolated from blood using HISTOPAQUE™-1077, a solution of FICOLL™ and sodium diatrizoate (Sigma Chemical Co., St. Louis, Mo.), and subsequent washings with RPMI-5 (RPMI supplemented with 5% fetal bovine serum) to remove platelets. Isolated lymphocytes were resuspended in RPMI-10 and a viable cell yield determined by Trypan Blue exclusion.
(§2) Drugs and known mitogenic controls were added in triplicate to a 96-well flat bottom microplate aseptically. The culture medium was RPMI-10. Splenocytes or human-lymphocytes were added at a concentration of 3-4×10^5 cells/well, to a final volume of 200 μl/well. The assay plate was incubated at 37° C. in a 5% CO2 humidified incubator. At 48-50 hours, ^3H-thymidine was added (1 μCi/well), and the plate was harvested approximately 16-18 hours later.
(§3) Mitogen assay microplates were harvested using an Inotech plate harvester (Inotech Biosystems International, Inc., Rockville, Md.). Counts per minute (cpm) per well were measured using the Berthold-Inotech Trace 96-plate reader (Inotech AT, Wohlen, Switzerland) and/or a scintillation counter (Packard Tri-carb 2100TR, Packard Instrument Co., Meriden, Conn.). Mitogenic activity was directly determined by comparing cpm levels to controls.
(§4) To test whether PT stimulates mitogen activity, splenocytes were incubated for two days with IL-2 (50 units/ml) or KLH (20 μg/ml) in conjunction with PT in the concentrations shown. Figures represent the radioactivity counts of tritiated thymidine taken up during a subsequent 20-hour incubation period of cells incubated with tritiated thymidine in RPMI.

The subject of data set [4] is IL-1. The data set can be described thus: ELISA of IL-1 production by splenocytes. The format is cell-based, Balb C murine. To be noted: 48 hours, PT 0.05 μg/ml. As for the experimental part: (§5) Identical plates are set up for an immunoassay and a mitogen assay. Mouse splenocytes and immuno-stimulating drugs are plated in duplicate wells (immunoassay) and triplicate wells (mitogen assay) in 96-well microplates as described above. The incubation at 37° C. in a humidified 5% CO2 incubator may vary from three to five days. At the end of the activation/proliferation period, the two identical plates are harvested as an immunoassay for cytokines or harvested as a mitogen assay (to which ^3H-thymidine has been added approximately 16-18 hours earlier).
(§6) Immunoassay kits used to detect IL-1β, IL-2, and IL-12 were the murine Quantikine M™ kits produced by R&D Systems (Minneapolis, Minn.). The general procedure is the same for all interleukin cytokines, and is described in the instructions provided by the manufacturer. All reagents are used at room temperature, and are prepared according to kit instructions.
(§7) The immunoassay plate is centrifuged at 200×g to pellet all cells. A 50 μl aliquot of Assay Diluent is first added to the center of each special enzyme-coated well supplied with the kit. Next, 50 μl of standard, control or test sample of supernatant from the immunoassay incubation plate is added to each well. This is incubated at room temperatures for two hours.
Liquid is aspirated from the wells, and the wells are washed five times with surfactant diluted 1:25 with distilled water. A 100 μL aliquot of Conjugate is added to each well and incubated two hours at room temperature. The wells are again aspirated and each well washed five times.
One hundred microliters of Substrate Solution are added to each well and incubated 30 minutes at room temperature. Stop Solution (100 μl) is then added to each well. The color change is light blue to yellow (activity). The plate is read for absorbence at 450 nm and at 540 nm for background readings.
To calculate the results, the duplicate readings for each pair of standard, control, and test samples are averaged and the average background optical density readings are subtracted. A standard curve is constructed for the cytokine by plotting the mean absorbence for each standard on the y-axis against the concentration on the x-axis and drawing a best-fit curve. Picograms of cytokine are determined from the standard curve. Mitogenic activity determined from the cpm of ^3H-thymidine is compared to the concentrations of cytokine in the experimental samples in the corresponding immunoassay.
One measure of macrophage activation is the production of the cytokine interleukin-1 (IL-1) and also interleukin-12 (IL-12). Incubation of 3×10^5 Balb C murine spleen cells with 0.05 μg/ml PT was performed for 48 hours. The supernatant fluid was assayed with commercial ELISA kits for IL-1 and IL-12. […] Some experiments gave less […] and some more. This is likely a reflection of the state of the immune system in the experimental mice. The addition of KLH, an effective antigen, increased both IL-1 and IL-12 production, and the addition of PT along with the KLH further increased the production of these cytokines.
(In general: An ELISA detects its analyte on a solid surface through an enzyme-linked reagent.)

In data set [5] the test system is IL-12. The data set can be described thus: ELISA of IL-12 production by splenocytes. The format is cell-based, Balb C murine. The following applies: Experiment 1; 48 hours; PT 0.05 μg/ml, KLH 10 μg/ml; control 1.5. Here is the method: as §5, §6, §7
Liquid is aspirated from the wells, and the wells are washed five times with surfactant diluted 1:25 with distilled water. A 100 μL aliquot of Conjugate is added to each well and incubated two hours at room temperature. […]
One hundred microliters of Substrate Solution are added to each well and incubated 30 minutes at room temperature. […] The plate is read for absorbence at 450 nm and at 540 nm for background readings.
To calculate the results, the duplicate readings for each pair of standard, control, and test samples are averaged and the average background optical density readings are subtracted. […] Picograms of cytokine are determined from the standard curve. Mitogenic activity determined from the cpm of ^3H-thymidine is compared to the concentrations of cytokine in the experimental samples in the corresponding immunoassay. […]

For data set [6], the system named is non-adherent human PBLs. The data set can be described thus: Mitogen assay (^3H-thymidine uptake), human PBLs. The format is cell-based. The following applies: IL-2 50 units/ml alone (PT = 0).
Description: as §1, §2, §3, §4

The subject of data set [7] is YAC-1 target cells. Briefly: Natural killer assay (^51Cr release), murine splenocytes against YAC-1. The format is cell-based. To be noted: Swiss Webster murine splenocytes; YAC-1 targets; 48 hours with drugs; PT 0.01 μg/ml, IL-2 50 units/ml when present; effector to target ratio 80. Here is the method: Murine spleen cell and human peripheral blood lymphocytes (PBLs) were obtained as described in the procedure for the Mitogen Assay.
Drugs and control substances were added, using sterile techniques, to the wells of a 24-well plate, using RPMI-10 as the culture medium. Spleen cells or human lymphocytes were added last to the wells at a concentration of 4×10^6 cells per 2 ml total volume in the well. Splenocyte incubation was usually three days (65-70 hours) while human lymphocyte stimulation may be extended to four to five days. The cells were incubated at 37° C. in a humidified 5% CO2 incubator.
On the day of harvest, 10^7 target cells were labeled with 150 μCi of ^51Cr (sodium chromate). Target cells used were YAC-I (murine Lymphoma) or K562 (human chronic myelogenous leukemia).
The cells were adjusted to 2×10^7 cells/ml in RPMI-10 and 150 μCi of ^51Cr were added to 500 μl of the target cell suspension (10^7 total cells) and incubated in a 5% CO2 humidified incubator for 1.5 hours. The labeled cells were washed three times with 10 ml RPMI-10 and then resuspended in 5 ml (2×10^6 cells/ml). Supernatants from washings of labeled cells were isolated and contained under lead shielding.
The stimulated effector cells were thoroughly mixed and removed from individual wells of the 24-well plate and transferred to tubes for centrifugation at 200×g. The supernatants were decanted and the pelleted cells washed once with 2 ml RPMI-10. The cells were finally resuspended in a total volume of 500 μl at approximately 8×10^6 cells/ml in RPMI-10.
One hundred microliters of the effector cell suspension (8×10^5 cells) were added in triplicate to a 96-well, V-bottom microplate. RPMI-10 was added to the wells designated for spontaneous release and total release of the target cells. One hundred microliters of the target cell suspension (1×10^4 cells/well) were added to the wells for a total volume of 200 μl. The “total release” wells contained 15 μl of 9% Triton X-100, 85 μl of RPMI-10, and 100 μl of target cells.
The 96-well plate was centrifuged at 150×g for four minutes to gently bring the effector and target cells in contact. The plate was then incubated in a humidified 5% CO2 incubator. After four hours, the assay plate was again centrifuged for five minutes at 250×g. One hundred microliters of the supernatant was carefully removed from each well and placed in 12 mm×75 mm glass tubes for counting in a gamma counter. The percent release was calculated using the following formula: […]
Addition of PT stimulates both murine splenocytes and human PBLs to kill tumor cells through lysis. This effect is enhanced in the presence of IL-2. Experimentally, the YAC-1 tumor cell line is routinely used as a target cell for murine NK cells, and the K562 cell line is used as the target for human PBLs. The human prostate cell line DU145 was also included in the test. The data set out in Table 5 show an activation of both murine and human NK cells by PT and IL-2. For these experiments, the drugs, PT and IL-2, were included in the cell suspension and incubated for 48 hours. After this period, the splenocyte suspension was mixed with the YAC-1 target cells that had been loaded with ^51Cr for four hours. The human PBLs were added to a K562 or DU-145 cell suspension that had been similarly loaded. After a 30-minute incubation, the radioactivity in the supernatant fluid was counted as a measure of lysis of the target cells, which reflects NK activity. […]

The subject of data set [8] is B16F10 melanoma tumor cells. Briefly: In vivo inhibition of B16F10 melanoma tumor development. More on the design: species or system C57BL/6NCr female mice. The following applies: B16 melanoma in C57 mice, sc 3 μg PT, 100 units IL-2. Here is the method:
C57BL/6NCr female mice (20 g), approximately 50 days old, were shaved in the abdominal area, ear notched for identification, and, two or three days prior to receiving tumor cells, pre-injected subcutaneously with the immunostimulating drugs described.
On “day zero,” B16F10 melanoma tumor cells, cultured in αMEM medium with 10% FBS, were injected intradermally (10^5 cells in 0.1 ml) in the center of the mouse abdomen using a 26 gauge ½ inch needle. Four to five hours later, the drug treatment (as specified) was injected intradermally in a different area of the abdomen than the site of the tumor injection.
Intradermal treatments using the immunostimulatory drug (as specified) continued either every other day or on a Monday-Wednesday-Friday injection schedule. Control tumors (in mice not receiving an immunostimulatory drug) usually formed within seven to ten days. Tumors were examined by visual inspection, measured (length by width), and the area of any resulting lesion was recorded as mm^2 every five days.
Mice were euthanized by CO2 inhalation if the tumor exceeded 500 mm^2. Some experiments were terminated early if all mice in the control group were dead, but the experiments were not less than 20 days. The normal duration of an experiment was about 30 days.
Pyrularia thionin, both alone and in combination with IL-2, was effective in preventing or retarding the development of melanoma tumors when C57BL/6NCr mice were pretreated before injection with B16F10 cells, which produce melanoma tumors.

As to `OCCS` [βME, β-mercaptoethanol, reference compound], in data set [1] (0.1 μg/ml (PT 20 nM; βME 40 nM)), the “stimulation of the mitogen reaction” value was “no stimulation”.
One may read the Kd as the concentration at which binding is half-saturated. A low value points to higher affinity. Molecule “Pyrularia thionin (from UniProt P07504) (peptide)” registered a Kd in data set [2] of 65 nM. In other words, the double-digit nanomolar range.
On to “granulocyte-macrophage colony-stimulating-factor [GM-CSF]”, for which the “Cpm, standard mitogen assay” value in data set [3] (GM-CSF (20 ng/ml) alone, no PT) was 1,170 Cpm; in data set [1] (GM-CSF (5 ng/ml) alone, no PT), 1,024 Cpm.
As for “keyhole limpet hemocyanin [KLH, reference compound]”, the “CPM of tritiated thymidine incorporated” value in data set [3] (KLH 20 μg/ml alone (PT = 0)) is 3,301 ± 255 CPM. Moreover, the IL-1 in data set [4] (Experiment 1, KLH 10 μg/ml, control 3.9) turned out to be 12.4 ± 0 pg/mL; in data set [4] (Experiment 4, KLH (20 mg/ml), control 9) it was 9 ± 0.4 pg/mL. This molecule returned an IL-12 in data set [5] of 21 ± 1.6 pg/mL.

B1: interleukin-2 (protein, UniProt P04351 21-169, looked up)
Interleukin-2: APTSSSTSSSTAEAQQQQQQQQQQQQHLEQLLMDLQELLSRMENYRNLKLPRMLTFKFYLPKQATELKDLQCLEDELGPLRHVLDLTQSKSFQLEDAENFISNIRVTVVKLKGSDNTFECQFDDESATVVDFLRRWIAFCQSIISTSPQ
notes: immunostimulatory cytokine; murine IL-2 in the mouse experiments, purchased from Sigma
For B1, the “CPM of tritiated thymidine incorporated” value was 1,900 ± 64 CPM in data set [6] and 2,379 ± 87 CPM in data set [3] (IL-2 50 units/ml alone (PT = 0)). Also, the “% Cytotoxicity” value in data set [7] was 16.3 ± 1.1%. Also, the “Average Tumor Size” value in data set [8] (20-31 days) is reported as 364 mm^2. Further, the “Number of Deaths” value in data set [8] (total mice 12 (IL-2), 15 (PT), 24 (PT + IL-2)) stood at 1. Further, the “Mice w/o Tumors” value in data set [8] (total mice 12 (IL-2), 15 (PT), 24 (PT + IL-2), 20-31 days) worked out at 0.
